Experimental data reported in patent US20040242547A1, “Arylazo-substituted imidazole for the treatment of stress urinary incontinence” (priority 2001, published 2004).

How the values were obtained:
[1] = tested on: human lower urinary tract smooth muscle strips (prostatic/urethral); test: Agonist potency on human lower urinary tract smooth muscle strips (isometric tension, organ bath); type: cell-based; details: for EC50 / Emax: human LUT strips; for EC50: cocaine 10 μM, corticosterone 10 μM, propanolol 1 μM present, read-out: pEC50 (increase in developed tension) (converted); for Emax: relative to 100 mM potassium chloride, read-out: maximum response equivalent to % of the response to 100 mM potassium chloride
Procedure: Determinations were made of agonist potency on human LUT and blood vessel smooth muscle. Tissue sources: human lower urinary tract smooth muscle strips (prostatic/urethral) were obtained from patients undergoing transurethral resection of the prostate procedure for benign prostatic hyperplasia. Human mesenteric arteries (500-750 μm internal diameter) were obtained from patients undergoing bowel resection for carcinoma. Tissues were preserved in Krebs-bicarbonate solution at 4° C. from the time of surgery until used in functional experiments within 24 hours. Sections of mesenteric artery (5 mm in length) were set up between stainless steel stirrups after removal of the endothelium by gentle rubbing. Strips of prostatic/urethral smooth muscle (3×10 mm) and the mesenteric arteries were set up under 1 g resting tension in Krebs solution of composition (mM): NaCl 118.4; KCl 4.7; CaCl2 1.9; NaHCO3 25.0; MgSO4 1.2; KH2PO4 1.2; glucose 11.7, gassed with 5% CO2 in O2 and maintained at 37° C. The tension developed by all tissues was measured by means of isometric force transducers (Lectromed UFI 57G sensitivity) and recorded to computer via a Cambridge Electronic Design 1401 analogue to digital converter, using CHART software. Tissues were equilibrated for 60 minutes with several changes of bathing medium prior to starting drug administrations. All experiments were performed in the presence of cocaine (10 μM) and corticosterone (10 μM), to prevent neuronal and extraneuronal uptake of drugs, and propanolol (1 μM), to block B adrenoreceptors. Cumulative concentration-response curves were obtained to 2-[(5-chloro-2-methoxyphenyl)azo]-1H-imidazole, and to noradrenaline for comparison. […] Increases in developed tension to agonist were plotted and individual EC50 values were determined. From these, pEC50 (negative log of the EC50) values were determined for each experiment and where appropriate mean values of these with standard error of the means calculated.

[2] = tested on: human mesenteric arteries; test: Agonist potency on human mesenteric artery sections (isometric tension, organ bath); type: cell-based; details: for EC50 / mean maximum contraction: human mesenteric arteries; for EC50: endothelium removed, cocaine 10 μM, corticosterone 10 μM, propanolol 1 μM present, read-out: pEC50 (increase in developed tension) (converted); for mean maximum contraction: for the imidazole the maximum occurred at 20 micromolar
Procedure: Determinations were made of agonist potency on human LUT and blood vessel smooth muscle. Tissue sources: human lower urinary tract smooth muscle strips (prostatic/urethral) were obtained from patients undergoing transurethral resection of the prostate procedure for benign prostatic hyperplasia. Human mesenteric arteries (500-750 μm internal diameter) were obtained from patients undergoing bowel resection for carcinoma. Tissues were preserved in Krebs-bicarbonate solution at 4° C. from the time of surgery until used in functional experiments within 24 hours. Sections of mesenteric artery (5 mm in length) were set up between stainless steel stirrups after removal of the endothelium by gentle rubbing. Strips of prostatic/urethral smooth muscle (3×10 mm) and the mesenteric arteries were set up under 1 g resting tension in Krebs solution of composition (mM): NaCl 118.4; KCl 4.7; CaCl2 1.9; NaHCO3 25.0; MgSO4 1.2; KH2PO4 1.2; glucose 11.7, gassed with 5% CO2 in O2 and maintained at 37° C. The tension developed by all tissues was measured by means of isometric force transducers (Lectromed UFI 57G sensitivity) and recorded to computer via a Cambridge Electronic Design 1401 analogue to digital converter, using CHART software. Tissues were equilibrated for 60 minutes with several changes of bathing medium prior to starting drug administrations. All experiments were performed in the presence of cocaine (10 μM) and corticosterone (10 μM), to prevent neuronal and extraneuronal uptake of drugs, and propanolol (1 μM), to block B adrenoreceptors. Cumulative concentration-response curves were obtained to 2-[(5-chloro-2-methoxyphenyl)azo]-1H-imidazole, and to noradrenaline for comparison. For the mesenteric artery preparations following the recording of the final drug response to 2-[(5-chloro-2-methoxyphenyl)azo]-1H-imidazole, a supramaximal concentration of noradrenaline was added as a further test for partial agonism. Increases in developed tension to agonist were plotted and individual EC50 values were determined. From these, pEC50 (negative log of the EC50) values were determined for each experiment and where appropriate mean values of these with standard error of the means calculated.

EC50 [1]	EC50 [2]	Structure (SMILES)	Emax [1]	agonist character compared with noradrenaline ([1]; human LUT tissue)	agonist character compared with noradrenaline ([2]; human blood vessels (mesenteric arteries))	mean maximum contraction [2]	mean further increase in tension ([2]; noradrenaline 160-210 μM added after the highest concentration of 2-[(5-chloro-2-methoxyphenyl)azo]-1H-imidazole, n=3)
2000 nM	5010 nM	COc1ccc(Cl)cc1N=Nc1ncc[nH]1 [2-[(5-chloro-2-methoxyphenyl)azo]-1H-imidazole]	62.5%	full agonist	partial agonist	1.1 ± 0.7 g	
3980 nM	661 nM	NC[C@H](O)c1ccc(O)c(O)c1 [Noradrenaline, noradrenaline, reference compound]	63.7 ± 4.8%			4.22 ± 2.21 g	2.7 ± 0.9 g
